Assay results taken from PubChem BioAssay (NCI).
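All cell lines were grown in 96-well plates and treated with compound for 48 hours. At the TGI there is no net growth.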

What was measured:
Experiment in all cases: NCI anticancer screen, dose series, 48 h
[1] = tested on: A549 NSCLC
[2] = tested on: ACHN renal
[3] = tested on: OVCAR-5 ovarian
[4] = tested on: CCRF-CEM leukemia
[5] = tested on: HOP-62 NSCLC
[6] = tested on: T-47D breast
[7] = tested on: 786-0 renal
[8] = tested on: A498 renal
[9] = tested on: SF-539 CNS
[10] = tested on: IGROV1 ovarian
[11] = tested on: UACC-257 melanoma
[12] = tested on: MALME-3M melanoma

Compound	TGI [1] [µM]	TGI [2] [µM]	TGI [3] [µM]	TGI [4] [µM]	TGI [5] [µM]	TGI [6] [µM]	TGI [7] [µM]	TGI [8] [µM]	TGI [9] [µM]	TGI [10] [µM]	TGI [11] [µM]	TGI [12] [µM]
Cc1ccc2c(C(=O)c3c(C)n(CCN4CCOCC4)c4ccccc34)cccc2c1	> 100	88.4	96.6	13	99.6	> 100	49	> 100	12.8	> 100	69.4	37.6
O=C(c1ccc(O)c([N+](=O)[O-])c1)c1ccc(O)c([N+](=O)[O-])c1	> 100	> 100	> 100	> 100	> 100	> 100	> 100	> 100	> 100	> 100	> 100	98.6
COc1ccc(C2SCC(=O)N2NC(=O)C(C)Oc2ccccc2C)cc1 (stereo not drawn)	> 100	> 100	> 100	> 100	> 100	> 100	> 100	> 100	> 100	> 100	> 100	> 100
COCC12CCC(OC)C34C5CC6(O)C(OC)CC(OC(C)=O)(C5C6OC(=O)c5ccccc5)C(C(OC)C13)C4N(C)C2 (stereo not drawn)	> 100	> 100	> 100	> 100	> 100	> 100	> 100	> 100	> 100	> 100	> 100	> 100
O=C(N/N=C(/COc1ccccc1Cl)N=Cc1ccncc1)c1ccncc1	> 100	> 100	> 100	> 100	> 100	> 100	> 100	> 100	> 100	> 100	> 100	> 100
COC(=O)c1cccc(OC)c1C#Cc1c(OC)cccc1OC	> 100	> 100	> 100	> 100	> 100	> 100	> 100	> 100	> 100	> 100	> 100	> 100
Cc1cc(N(CCC#N)CCC#N)ccc1/C=C1\SC(=S)NC1=O	> 100	> 100	> 100	> 100	> 100	> 100	> 100	> 100	> 100	> 100	> 100	> 100
COC(=O)NC(Cc1ccccc1)NC(C)=O (stereo not drawn)	> 100	> 100	> 100	> 100	> 100	> 100	> 100	> 100	> 100	> 100	> 100	> 100
O=C1CS[C@@](CC(c2ccc(Cl)cc2)c2ccc(Cl)cc2)(c2ccc(Cl)cc2)N1	> 100	89.4	> 100	> 100	82	> 100	71.2	45.8	64.4	> 100	> 100	82.6
CCCC(=O)NC(Nc1ccc(F)cc1)(C(F)(F)F)C(F)(F)F	> 100	> 100	> 100	> 26.7	> 100	> 100	> 100	> 100	> 100	> 100	> 100	> 100
COc1cc2c(cc1OC)[C@@](C)(C(O)C(O)C(C)(C)O)NCC2 (stereo partly drawn)	> 100	> 100	> 100	> 100	> 100	> 100	> 100	> 100	> 100	> 100	> 100	> 100
CN(C)CC1CCC/C(=C\c2ccc(OC(=O)/C=C/c3ccc(Cl)c(Cl)c3)cc2)C1=O (stereo not drawn)	24.4	3.46	> 65.3	1.77	14.8	6.75	4.19	32.1	7.19	3.15	40.4	25.4
COc1ccc2c(c1)c1nn(CCN3CCCCC3)c3ccc4c(=O)n(CCN(C)C)c(=O)n2c4c13	0.0497	0.243	0.126	0.785	0.0384	0.454	0.059	0.119	0.975	< 0.0174	0.885	0.351
COC1(c2cccs2)c2ccccc2C(OC)(c2cccs2)c2ccccc21 (stereo not drawn)	> 100	> 100	> 100	> 100	> 100	> 100	> 100	83.4	> 100	> 100	> 100	> 100
O=C(O)CCc1ccc2c(c1)CC1(Cc3ccccc3C1)C2	> 100	> 100	> 100	> 100	> 100	> 100	> 100	> 100	> 100	> 100	> 100	> 100
CC(=O)OCCCCn1cc(Cn2ccc(=O)n(Cc3cn(CCCCOC(C)=O)nn3)c2=O)nn1	> 100	> 100	> 100	> 100	> 100	> 100	> 100	> 100	> 100	> 100	> 100	> 100
COC12C=CC(C=C1C#N)CC2 (stereo not drawn) (tested in a mixture with another compound)	> 100	> 100	> 100	> 100	> 100	> 100	> 100	> 100	> 100	> 100	> 100	> 100
CN(C)CCNC(=O)c1ccc(Cl)c2cc3ccccc3nc12	3.08	12.1	10.7	4.64	4.6	12.1	5.61	1.33	3.28	11.3	2.64	2.26
Cc1c2ccccc2c(C)n2c1nc1ccccc12	23.2	45.5	48.3	60.5	36	89.6	25.9	25.5	18.6	43.8	76.4	23.5
CCOC(=O)C(=O)CC(=O)C1=C(c2ccccc2OC)CC(c2cccs2)=CC1=O	> 100	> 100	> 100	> 100	> 100	> 100	> 100	> 100	> 100	> 100	> 100	> 100
Cc1ccc(S(=O)(=O)n2ccc(-c3ccc4ccn(S(=O)(=O)c5ccc(C)cc5)c4c3)c2)cc1	> 100	> 100	> 100	> 100	> 100	> 100	> 100	> 100	> 100	> 100	> 100	> 100
COC(=O)C1=CON2C3CC4CC(C3)CC(C4)C12C (stereo not drawn)	> 100	> 100	> 100	> 100	> 100	> 100	> 100	> 100	> 100	> 100	> 100	> 100
CC(=O)OC(C)(C)CCC(=O)[C@](C)(O)[C@H]1[C@H](O)C[C@@]2(C)[C@@H]3CC=C4C(C)=C(OC5OC(CO)C(O)C(O)C5O)C(=O)C[C@@H]4[C@]3(C)C(=O)C[C@]12C (stereo partly drawn)	> 100	> 100	> 100	> 100	> 100	> 100	> 100	> 100	> 100	> 100	> 100	> 100
CCCN(CCC)C1CCc2c(ccc3cc[nH]c23)C1 (stereo not drawn)	> 100	> 100	> 100	73.3	> 100	> 100	> 100	> 100	> 100	> 100	81.2	> 100
